{"source": "patent US20220226338A1", "about": "“Methods of Treating Cancer Using CHK1 Inhibitors” (Sierra Oncology, Inc., priority 2019, published 2022)", "key": {"[1]": {"assay": "Single dose PK, rat", "format": "in vivo", "conditions": "Rat oral 10 mg/kg single dose", "description": "(§1) Several studies have been conducted to evaluate the PK properties of SRA737, such as the absorption (in vitro permeability assays and in vivo PK following IV and oral administration), distribution (in vivo tissue distribution and in vitro plasma protein binding) and metabolism (in vitro hepatocyte and CYP inhibition and induction studies) of SRA737.\n(§2) The PK of SRA737 have been determined in the mouse, rat, dog and monkey following oral and IV administration (Table 3). […] An acceptable terminal elimination t1/2 was also observed in each species. […] The plasma protein binding of SRA737 at 1 and 10 μM was examined in mouse, minipig, monkey and human plasma using ultracentrifugation and in dog plasma (10 μM) using rapid equilibrium dialysis."}, "[2]": {"system": "Chk1 autophosphorylation", "assay": "In vitro Chk1 inhibition after genotoxic chemotherapy (autophosphorylation, checkpoint arrest, cytotoxicity potentiation)", "format": "cell-based"}, "[3]": {"system": "plasma protein", "assay": "Plasma protein binding, ultracentrifugation, human plasma", "format": "in vitro ADME", "description": "as §2"}, "[4]": {"system": "genetically defined tumors (HGSOC, CRC, mCRPC, NSCLC, SCCHN, SCCA)", "assay": "SRA737 monotherapy clinical study (SRA737-01), anti-tumor activity per RECIST v1.1", "format": "in vivo, human", "description": "An in-human clinical trial is conducted to confirm efficacy of SRA737 monotherapy methods of treatment and patient selection strategies disclosed herein for prospectively-selected genetically-defined subjects with tumor types known to have a high prevalence of genomic alterations expected to sensitize the tumor to Chk1 inhibition (“Cohort Expansion Phase”). The Cohort Expansion Phase consists of 6 indication-specific expansion cohorts of approximately 20 prospectively-selected genetically-defined subjects each. The cohorts are subjects with previously treated metastatic colorectal cancer [CRC], high grade serous ovarian cancer [HGSOC] without CCNE1 gene amplification, HGSOC with CCNE1 gene amplification (or alternative genetic alteration with similar functional effect), metastatic castration-resistant prostate cancer [mCRPC], advanced non-small cell lung cancer [NSCLC], and squamous cell carcinoma of the head and neck [HNSCC], or squamous cell carcinoma of the anus [SCCA]. Subjects are initially administered SRA737 following the dosing regimen established in Example 4. The dosing regimen in some cases changes during the course of the trial.\nAll subjects who have measurable disease, receive at least one cycle of SRA737 and have a baseline plus at least 1 post-baseline assessment of disease are evaluable for response. Subjects who develop clear evidence of PD without a formal disease assessment and those without a formal disease assessment before study withdrawal are considered non-responders. Complete responses and PRs are required to be confirmed by a subsequent assessment at least 4 weeks later. Stable Disease (SD) determination requires that the relevant criteria be met at least once, a minimum of 6 weeks after the initial dose of SRA737 is given.\nResponse criteria are defined below: • a. Complete Response (CR): Disappearance of all target lesions. Any pathological lymph nodes (whether target or non-target), in general, have reduction in short axis to <10 mm. • b. Partial Response (PR): At least a 30% decrease in the sum of diameters of target lesions, taking as reference the baseline sum diameters. • c. Progressive Disease (PD): At least a 20% increase in the sum of diameters of target lesions, taking as reference the smallest sum on study (this includes the baseline sum if that is the smallest on study). […] (Note: the appearance of one or more new lesions is also considered progression). • d. Stable Disease (SD): Neither sufficient shrinkage to qualify for PR nor sufficient increase to qualify for PD, taking as reference the smallest sum diameters while on study.\nThe Cohort Expansion phase was contemporaneously initiated when circulating plasma concentrations of SRA737 exceeded the minimum effective concentration of SRA737 modelled from murine efficacy studies. Thereafter, experience gained in the ongoing Dose Escalation phase informed dose selection for expansion cohorts. The Cohort Expansion phase enrolled subjects with genetically defined tumors that harbored genomic alterations hypothesized to confer sensitivity to Chk1 inhibition, which were prospectively selected by next-generation sequencing (FoundationOne). Subjects with the following tumors were eligible for enrollment: ia) high grade serous ovarian cancer (HGSOC), ib) HGSOC putatively enriched for CCNE1 gene network amplification, ii) colorectal cancer (CRC), iii) metastatic castration-resistant prostate cancer (mCRPC), iv) non-small cell lung cancer (NSCLC), and v) squamous cell carcinomas (head and neck (SCCHN); anus (SCCA)).\nPreliminary anti-tumor activity was assessed by target tumor response and overall response in accordance with RECIST v1.1."}, "[5]": {"assay": "Excretion in urine and feces, mice", "format": "in vivo", "conditions": "24-hour collection", "description": "The excretion of SRA737 has been studied in mice and rats administered SRA737 at either 5 mg/kg IV or 10 mg/kg orally. Urine and feces were collected for a 24-hour period after dosing. In mice, renal excretion of intact SRA737 was consistently low (less than 10% of dose) after both oral and IV administration. Following IV administration of SRA737, less than 8% of the dose was recovered as intact drug in the feces while after oral administration this figure was less than 3%. Excretion of intact SRA737 was lower in the rat than in the mouse with <1% of dose excreted renally over 24 hours and less than 1.5% of dose excreted into the feces over 24 hours."}, "[6]": {"assay": "Single dose PK, monkey", "format": "in vivo", "description": "as §1, §2"}, "[7]": {"system": "plasma protein", "assay": "Plasma protein binding, ultracentrifugation, minipig plasma", "format": "in vitro ADME", "description": "as §2"}, "[8]": {"conditions": "FA/BRCA gene network alterations"}}, "note": "Several values for one entry are separate records, joined by “and”; a condition that tells them apart may be missing. Equal entries are not always repeated.", "data": [{"smiles": "N#Cc1cnc(Nc2cc(NCC3CNCCO3)c(C(F)(F)F)cn2)cn1", "note": "(centres unmarked) [SRA737, 5-[[4-[[morpholin-2-yl]methylamino]-5-(trifluoromethyl)-2-pyridyl]amino]pyrazine-2-carbonitrile]", "values": [{"measurement": "Foral", "setting": "[1]", "result": 42, "unit": "%"}, {"measurement": "inhibition of genotoxicity-induced checkpoint arrest", "setting": "[2]", "result": "dose-dependent inhibition"}, {"measurement": "potentiation of the cytotoxicity of genotoxic chemotherapeutic agents and targeted agents", "setting": "[2]", "result": "dose-dependent potentiation"}, {"measurement": "inhibition of genotoxic chemotherapy-induced Chk1 autophosphorylation", "setting": "[2]; data not shown", "result": "potently inhibited"}, {"measurement": "Percentage Bound", "setting": "[3]; 1 μM", "result": 87.7, "unit": "%"}, {"measurement": "Percentage Free", "setting": "[3]; 1 μM", "result": 12.4, "unit": "%"}, {"measurement": "Percentage Bound", "setting": "[3]; 10 μM", "result": 87.2, "unit": "%"}, {"measurement": "Percentage Free", "setting": "[3]; 10 μM", "result": 12.8, "unit": "%"}, {"measurement": "confirmed RECIST partial or complete response", "setting": "[4]", "result": "no subject had a confirmed RECIST partial or complete response"}, {"measurement": "responses of subjects with unambiguously positive CCNE1 amplification", "setting": "[4]; 4/24 HGSOC subjects", "result": "3 SD and 1 Progressive Disease (PD)"}, {"measurement": "subjects with best overall response of SD", "setting": "[4]; 107 subjects treated", "result": "34 (32%) n (%)"}, {"measurement": "DCR", "setting": "[4]; CCNE gene network alterations", "result": 67, "unit": "%"}, {"measurement": "DCR", "setting": "[4]; [8]", "result": 71, "unit": "%"}, {"measurement": "DOS", "setting": "[4]; [8]", "result": 3.8, "unit": "cycles"}, {"measurement": "Disease Control Rate (DCR)", "setting": "[4]; HGSOC cohort", "result": 54, "unit": "%"}, {"measurement": "maximal target tumor decreases", "setting": "[4]; HGSOC subjects", "result": "27% and 29%"}, {"measurement": "anti-tumor activity by tumor type", "setting": "[4]; HGSOC, CRC, mCRPC and NSCLC tumors", "result": "Anti-tumor activity was observed"}, {"measurement": "DCR", "setting": "[4]; PI3K gene network alterations (PIK3CA, AKT, PTEN)", "result": 77, "unit": "%"}, {"measurement": "PDs", "setting": "[4]; RAS network mutations", "result": "15/20"}, {"measurement": "duration on study (DOS)", "setting": "[4]; RAS network mutations", "result": 2, "unit": "cycles"}, {"measurement": "overall average tumor % change", "setting": "[4]; RAS network mutations", "result": "+20%"}, {"measurement": "DCR", "setting": "[4]; activating mutations in the RAS network", "result": 25, "unit": "%"}, {"measurement": "subjects with durable stable disease (SD) lasting ≥4 months", "setting": "[4]; data cut off 3 May 2019", "result": "22 (21%) n (%)"}, {"measurement": "renal excretion of intact SRA737", "setting": "[5]; 5 mg/kg IV or 10 mg/kg oral", "result": "less than 10 % of dose"}, {"measurement": "intact drug recovered in the feces", "setting": "[5]; IV administration", "result": "less than 8 % of dose"}, {"measurement": "intact drug recovered in the feces", "setting": "[5]; oral administration", "result": "less than 3 % of dose"}, {"measurement": "Foral", "setting": "[6]; Monkey oral 2 mg/kg single dose", "result": 90, "unit": "%"}, {"measurement": "Foral", "setting": "[6]; Monkey oral 10 mg/kg single dose", "result": 104, "unit": "%"}, {"measurement": "Percentage Bound", "setting": "[7]; 1 μM", "result": 85.2, "unit": "%"}, {"measurement": "Percentage Free", "setting": "[7]; 1 μM", "result": 14.9, "unit": "%"}, {"measurement": "Percentage Bound", "setting": "[7]; 10 μM", "result": 75.5, "unit": "%"}, {"measurement": "Percentage Free", "setting": "[7]; 10 μM", "result": 24.5, "unit": "%"}]}]}
